The target of one test is T1, kinase domain of RIPK1 (Homo sapiens, UniProt Q13546).
T1 construct: The kinase domain of RIPK1; made in house
T1 sequence (Q13546 17-289 limits assumed): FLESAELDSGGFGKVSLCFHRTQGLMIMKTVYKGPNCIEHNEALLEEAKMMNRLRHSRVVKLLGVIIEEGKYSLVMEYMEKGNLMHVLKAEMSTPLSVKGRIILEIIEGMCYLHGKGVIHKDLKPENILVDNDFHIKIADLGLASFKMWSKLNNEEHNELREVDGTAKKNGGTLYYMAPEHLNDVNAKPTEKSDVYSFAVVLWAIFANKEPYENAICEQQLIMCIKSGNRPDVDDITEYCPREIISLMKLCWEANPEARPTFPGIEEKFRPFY
Briefly: Differential scanning fluorimetry (thermal shift), RIPK1 kinase domain. Format: binding. Conditions: 10 μM compound, 1 μM protein, average of triplicates. Here is the method:
(§1) To measure the thermal stabilization of the proteins upon compound binding we employed differential scanning fluorimetry (DSF). The kinase domain of RIPK1 and the N-terminal domain HSP90α were expressed and purified as previously described. The pseudokinase MLKL-1, RIPK1 and Hsp90 were melted at 1μM final concentrations in 25mM HEPES pH 8.0, 250mM NaCl and 2.5mM DTT. Compounds were added to a final concentration of 10 μ M with a final DMSO concentration of 5%. The complexes were incubated on ice for 30 minutes. Protein Thermal Shift dye (Life Technologies) was added to 1X. The fluorescence intensities were measured using a Quantstudio real-time PCR system (Life Technologies) with excitation at 470 nm and emission at 586 nm. The samples, measured in triplicate, were heated from 25 to 85°C with a heating rate of […].

A further test has as its target T2, pseudokinase MLKL-1 (Homo sapiens, UniProt Q8NB16).
T2 construct: sub-cloning residues 191 to 471 of the pseudokinase domain of human MLKL cDNA; His6 (thrombin cleavable) (N); made in house; host or cells: Escherichia coli BL21 (DE3)
T2 sequence (Q8NB16 191-471): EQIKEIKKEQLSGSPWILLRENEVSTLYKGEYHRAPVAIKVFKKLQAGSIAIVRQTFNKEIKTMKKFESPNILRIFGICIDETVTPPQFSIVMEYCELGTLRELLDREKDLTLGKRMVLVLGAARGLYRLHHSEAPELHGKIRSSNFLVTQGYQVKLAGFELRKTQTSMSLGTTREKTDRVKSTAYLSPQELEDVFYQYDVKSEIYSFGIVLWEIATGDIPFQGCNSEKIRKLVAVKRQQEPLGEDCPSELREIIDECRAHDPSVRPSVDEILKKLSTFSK
Briefly: Differential scanning fluorimetry (thermal shift), MLKL pseudokinase domain. It is filed as binding. Conditions: 10 μM compound, 1 μM protein, average of triplicates; read-out: MLKL Pseudo-kinase thermal shift at 10 μM.
Description: MLKL-1 was constructed by sub-cloning residues 191 to 471 of the pseudokinase domain of human MLKL cDNA into a pET15b vector with a thrombin cleavable N-terminal six histidine fusion tag (His-MLKL-1). MLKL-2 had the same protein boundaries and fusion tag system as MLKL-1 but the dual mutations E366A and K367A were introduced using site directed mutagenesis and was expressed in the same vector (His-MLKL-2).
as §1

The test system of a further test is FADD (-/-) Jurkat cells. Briefly: Necroptosis assay: rescue from TNF-α induced cell death. Format: cell-based. The note with it: Homo sapiens; for IC50: read-out: Necroptosis cell IC50. Here is the method: Necroptosis assays were performed at Charles River Laboratories (United Kingdom) and at Biogen. […] On the day of the experiment, cells were counted using Nexcelom Bioscience Cell Meter Vision and pelleted by centrifugation. Cell pellets were resuspended in fresh medium at 500,000 cells per mL and transferred to assay-ready compound plates prepared in 384-well white TC plates (Greiner #781080) at 20μl cells per well. Cells and compound were incubated at room temperature for 30 minutes followed by +/- stimulation with 15ng/ml TNF-α (Cell signalling Technologies #8902LF) overnight at 37°C. In the morning, plates were equilibrated to room temperature for 30 minutes and 25μl of CellTiter-Glow (CellTiter-Glo 2.0 Assay, Promega # G9243) diluted 1:4 in PBS was added to each well and allowed to incubate for 10 minutes at room temperature. Luminescence was read on an Envision plate reader (Perkin Elmer).
TNF-α added to these cells induces necroptosis or cell death. The term “Rescue” refers to the ability of a compound to prevent loss of cell viability in the presence of TNF. Definitions of the presence or absence of compound or TNF stimulation in the wells that were used to calculate degree of rescue or viability is defined in Table 1.
100% percent rescue is defined as the value of the “no TNF” wells minus the value of wells treated with “TNF”.
Percent Rescue is then the ratio of the intensity value of the experimental “well” minus the value of “TNF” treated wells divided by the overall difference between the value of “no TNF” treated wells and the value of “TNF” treated wells.
%rescue=((well - TNF)/(no TNF - TNF))x100

For a further test, the system named is 403 non-mutant kinases. In words: DiscoverX kinase selectivity panel. It is filed as binding. Conditions: 1 μM compound. The source says: We then characterized several compounds that were expected to bind to MLKL across a broad panel of 403 non-mutant kinases at DiscoverX.
Test [1] relates to RIPK3 phosphorylation of MLKL in 293T cells. Briefly: MLKL phosphorylation assay (MSD), RIPK3-dependent phospho Ser358. Format: cell-based, human. The note with it: 293T cells with GFP-MLKL and RIPK3-mCherry, 30 min compound, normalized to DMSO. Here is the method:
The cDNA clones of human MLKL (RC213152) and human RIPK3 (RC209549) were purchased from Origene. To generate GFP-MLKL and RIPK3-mCherry, coding sequences of the corresponding cDNA sequences were PCR amplified and cloned into Biogen’s mammalian expression vector.
293T cells grown in 10 cm plates were transfected with GFP-MLKL alone or both GFP-MLKL and RIPK3-mCherry plasmids. After 24 hours, cells were harvested and replated into poly D lysine coated 96W plate with 20,000 cells/ml. Four hours later, cells were treated with MLKL compounds for 30 min and incubated at 37°C. Thirty minutes later, the media was removed and cells were lysed in 150μl of Cell lysis buffer (Cell Signaling, MA) containing both protease and phosphatase inhibitors. The lysates were transferred to 96 well MSD plates (Meso Scale Discovery, MD) that were precoated with anti-mouse MLKL antibody H00197259-M02, 3B2, Novus Biologicals, CO), and incubated overnight at 4°C. After washing the plates three times with 1x MSD wash buffer (50mM TRIS-HCl, 150mM NaCl, 0.02% Tween 20, pH7.5), 100 μl of 0.5μg/ml of rabbit-anti-MLKL phospho Ser358 (Abcam AB187091) was added to each well. The plates were incubated for 2 hours at room temperature. After three washes with MSD wash buffer, 100 μ l of 0.5ug/ml of SULFO-tag labeled anti-rabbit IgG was added to each well and incubated for 1 hour at room temperature. After three washes, 1x Read bufferT (Meso Scale Discovery, MD) was added and the electrochemiluminescence (ECL) was measured with a MSD Sector Imager 600.

We go through two molecules from PMC5104457, “ATP-Competitive MLKL Binders Have No Functional Impact on Necroptosis” (PLoS ONE, 2016).

Like-named read-outs stand apart in the source and are kept apart here.

`CN(c1ccc(NC(=O)Nc2ccc(OC(F)(F)F)cc2)cc1)c1ccnc(Nc2cccc(S(N)(=O)=O)c2)n1` [cpd 1, reference compound]: the ΔTm at 10 µM at kinase domain of RIPK1 and at pseudokinase MLKL-1 was 5 to 6 °C each time. Also, in the test with FADD (-/-) Jurkat cells (Jurkat), the IC50 – broadly, the concentration that gives 50% inhibition – came to 1850 nM. Besides, the EC50 (in general, the concentration at which the effect is half-maximal) in the test on FADD (-/-) Jurkat cells (FADD deficient Jurkat cells, TNF stimulation) was 1850 nM. In addition, the “number of kinases inhibited out of 403” value with 403 non-mutant kinases worked out at 56. For the same molecule, the “effect on RIPK3-dependent phosphorylation of MLKL (phospho Ser358, in words)” value in test [1] (listed as Cpd 1) is “does not impact its phosphorylation”.

On to `Nc1nccnc1C(=O)O[C@@H](C(=O)Nc1ccc(F)cc1)c1ccccc1` [cpd 4, 3-Amino-pyrazine-2-carboxylic acid (R)-(4-fluorophenylcarbamoyl)-phenyl-methyl ester], for which the ΔTm at 10 µM on kinase domain of RIPK1 is -0.15 °C; on pseudokinase MLKL-1, 4 °C. Also, the IC50 with FADD (-/-) Jurkat cells (FADD deficient Jurkat cells, TNF-α 15 ng/ml overnight, average of duplicates) was greater than 40000 nM. Besides, the “number of kinases inhibited out of 403” value in the test on 403 non-mutant kinases was 1; with 403 non-mutant kinases (listed as Cpd 4), “none”. Further, the “effect on RIPK3-dependent phosphorylation of MLKL (phospho Ser358, in words)” value in test [1] is given as “does not impact its phosphorylation”.
